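Interpolation was linear, between the two tested concentrations surrounding the appropriate level; five concentrations were tested over 48 hours in 96-well plates. At the GI50, growth is halved. TGI is the concentration that stops growth completely.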
Legend:
Experiment in all cases: NCI anticancer screen, dose series, 48 h
BT-549 breast = tested on: BT-549 breast
MDA-MB-231 breast = tested on: MDA-MB-231 breast
NCI-H226 lung = tested on: NCI-H226 lung
ACHN renal = tested on: ACHN renal
LOX IMVI melanoma = tested on: LOX IMVI melanoma
K-562 leukemia = tested on: K-562 leukemia
T-47D breast = tested on: T-47D breast
SN12C renal = tested on: SN12C renal
NCI/ADR-RES ovarian = tested on: NCI/ADR-RES ovarian
HCT-116 colon = tested on: HCT-116 colon

SMILES	GI50 (BT-549 breast) [µM]	TGI (BT-549 breast) [µM]	GI50 (MDA-MB-231 breast) [µM]	TGI (MDA-MB-231 breast) [µM]	GI50 (NCI-H226 lung) [µM]	TGI (NCI-H226 lung) [µM]	GI50 (ACHN renal) [µM]	TGI (ACHN renal) [µM]	GI50 (LOX IMVI melanoma) [µM]	TGI (LOX IMVI melanoma) [µM]	GI50 (K-562 leukemia) [µM]	TGI (K-562 leukemia) [µM]	GI50 (T-47D breast) [µM]	TGI (T-47D breast) [µM]	GI50 (SN12C renal) [µM]	TGI (SN12C renal) [µM]	GI50 (NCI/ADR-RES ovarian) [µM]	TGI (NCI/ADR-RES ovarian) [µM]	GI50 (HCT-116 colon) [µM]	TGI (HCT-116 colon) [µM]
N#Cc1c(-c2ccc(Cl)cc2)csc1NC(=O)Nc1cccc(C(F)(F)F)c1	2.62	9.23	1.78	3.72	3.42	10.5	2.23	6.51	2.64	9.48	2.97	12.2	1.76	7.79	2.93	10.7	2.1	4.7	2.33	8.44
CNc1ccc(N=Nc2cccc3ncccc23)cc1	24.4	> 100	7.47	> 100	> 100	> 100	20.8	> 100	22.3	> 100	19.3	> 100	0.0346	> 77.1	36.5	> 100	23.3	> 100	–	–
COc1ccc(-c2cn(-c3cc(OC)c(OC)c(OC)c3)c(=O)n2-c2ccccc2)cc1	> 100	> 100	> 100	> 100	> 100	> 100	> 100	> 100	> 100	> 100	> 100	> 100	27.3	> 100	84.3	> 100	74.6	> 100	> 100	> 100
Cc1ccc2c(C(C[N+](=O)[O-])c3ccco3)c(-c3ccccc3)[nH]c2c1 (stereo not drawn)	48.8	> 100	27.1	> 100	> 100	> 100	41.4	> 100	44.2	> 100	5.19	> 100	23	> 100	47.8	> 100	11.7	> 100	19.8	> 100
Cc1ccc(-c2cc(C(Cl)Cl)on2)cc1	> 100	> 100	> 100	> 100	48.2	> 100	33.5	> 100	41.1	> 100	–	–	35.3	> 100	> 100	> 100	44.9	> 100	36.1	> 100
Nc1ccc2c(SCC(=O)Nc3ccccc3-c3ccccc3NC(=O)CSc3c4ccccc4nc4cc(N)ccc34)c3ccccc3nc2c1	–	85.1	–	> 84	–	72.6	–	> 86.6	–	66.2	–	28.3	–	> 63.3	–	> 87.2	–	> 100	–	64.5
CC[C@H](C)[C@H](NC(=O)N[C@@H](C)c1ccccc1)C(=O)N(C)[C@H](C[C@@H](OC(C)=O)c1nc(C(=O)N[C@@H](Cc2ccccc2)C[C@H](C)C(=O)OC)cs1)C(C)C	21.4	74.9	20.7	63.8	44.1	> 100	29.3	> 100	30.9	> 100	–	–	97.9	> 100	48.8	> 100	45.8	> 100	21.8	68.5
CCn1c(-c2nonc2N)nc2c(C#CC(C)(C)O)ncc(OC[C@@H]3CCCN3)c21	4.77	> 22.8	7.46	> 25	8.27	> 24	8.76	> 25	5.5	> 19.4	9	> 25	0.408	> 25	5.26	> 25	> 25	> 25	5.34	20.2
CCCCCCCCCCCCCCCCCCNC(=O)[C@H]1CSC(c2ccc(F)c(OC)c2)N1 (stereo partly drawn)	0.974	1.85	0.842	1.67	0.773	1.58	2.71	> 50	0.788	2.07	0.774	2.45	0.604	1.46	0.805	1.72	1.07	2.41	0.835	1.64
NC1(C(=O)O)CSSC1	4.87	40.2	17.1	44.3	2.7	8.82	3.63	14.2	3.24	14.8	3.7	> 100	32.1	> 100	3	12.3	3.46	27.7	4.53	84.5
CC(=O)OC1Oc2cc(C)c(C)cc2-c2oc(=O)c(-c3ccccc3)cc21 (stereo not drawn)	7.34	> 31.9	0.584	30.9	2.77	–	1.34	> 100	1.47	> 100	0.178	> 100	0.352	> 68.1	0.487	> 100	0.213	0.908	0.455	46.9
CCOC(=O)/N=c1\ssc(Cl)c1Cl	2.77	7.21	6.95	28.7	27.8	> 100	1.95	4.37	1.9	3.99	1.93	> 100	17.2	42.6	6.7	25.8	4.11	> 100	3.35	> 100
